Data as given in patent US8642788B2, “Activators of executioner procaspases 3, 6 and 7” (The Regents of the University of California, priority 2008, dated 2014).
Where two headings read alike, the source gives them in different places.

Tests used:
Assay type in all cases: biochemical
procaspase-3 = biological target: T1, procaspase-3 (Homo sapiens, UniProt P42574); assay: Executioner procaspase-3 activation assay (Ac-DEVD-AFC fluorogenic substrate)
T1 construct: His6 (C); made in house; host or cells: E. coli BL21(DE3)RP, pET-23b
T1 sequence (P42574 1-277): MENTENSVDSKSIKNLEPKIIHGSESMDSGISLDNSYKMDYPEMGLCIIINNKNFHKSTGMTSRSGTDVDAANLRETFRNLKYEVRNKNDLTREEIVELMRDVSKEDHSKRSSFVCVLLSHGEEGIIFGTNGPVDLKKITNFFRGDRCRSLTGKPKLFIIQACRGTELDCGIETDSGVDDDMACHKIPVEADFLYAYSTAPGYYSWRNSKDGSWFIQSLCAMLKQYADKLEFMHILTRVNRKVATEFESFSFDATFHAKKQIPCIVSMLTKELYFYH
Summary of the method: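 Procaspase-3 at 100 nM was incubated with activating compounds (100 nM to 100 uM) in 50 mM HEPES pH 7.4, 50 mM KCl, 1 mM DTT and 0.01% Triton-X100, the detergent limiting aggregation artefacts. Protein, substrate and inhibitor were kept as frozen aliquots and thawed just before use.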

procaspase-6 = biological target: T2, procaspase-6 (Homo sapiens, UniProt P55212); assay: Executioner procaspase-6 activation assay (Ac-VEID-AFC fluorogenic substrate); conditions: incubation with compound for 5 h at 37° C.; 100 nM procaspase
T2 sequence (P55212 1-293): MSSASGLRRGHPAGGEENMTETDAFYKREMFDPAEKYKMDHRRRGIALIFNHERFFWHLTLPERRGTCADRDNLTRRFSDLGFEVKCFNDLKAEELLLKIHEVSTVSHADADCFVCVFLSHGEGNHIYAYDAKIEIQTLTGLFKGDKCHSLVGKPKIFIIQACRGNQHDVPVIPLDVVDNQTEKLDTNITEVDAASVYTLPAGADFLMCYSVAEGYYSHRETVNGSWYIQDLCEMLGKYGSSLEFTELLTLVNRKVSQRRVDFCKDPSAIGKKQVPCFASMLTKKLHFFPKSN
Summary of the method: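 Procaspase at 100 nM incubated with compound (100 nM–100 μM) in 50 mM HEPES pH 7.4, KCl, DTT, 0.01% Triton X-100, 3% DMSO, 37 °C for 5 h; then 25 μM Ac-DEVD-AFC (procaspase-7) or Ac-VEID-AFC (procaspase-6), kinetic fluorescence 30 min (ex 365/em 495); EC50 reported.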

procaspase-7 = biological target: T3, procaspase-7 (Homo sapiens, UniProt P55210); assay: Executioner procaspase-7 activation assay (Ac-DEVD-AFC fluorogenic substrate); conditions: incubation with compound for 5 h at 37° C.; 100 nM procaspase
T3 construct: His6 (C); made in house; host or cells: E. coli BL21(DE3)RP, pET-21b
T3 sequence (P55210 1-303): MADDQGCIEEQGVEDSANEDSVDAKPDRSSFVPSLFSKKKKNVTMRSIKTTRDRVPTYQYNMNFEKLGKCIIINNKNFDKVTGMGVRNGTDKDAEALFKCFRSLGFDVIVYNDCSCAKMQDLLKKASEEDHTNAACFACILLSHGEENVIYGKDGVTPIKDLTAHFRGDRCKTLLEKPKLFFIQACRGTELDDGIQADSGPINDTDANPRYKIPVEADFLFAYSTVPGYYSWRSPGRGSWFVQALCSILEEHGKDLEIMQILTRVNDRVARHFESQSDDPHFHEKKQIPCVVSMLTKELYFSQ
Protocol: The executioner procaspase-3, -6 and -7 activation assay protocol involves incubating the target protein at the physiologically-relevant concentration of 100 nM with activating compounds (ranging from 100 nM to 100 uM) in a total volume of 50 μL consisting of a reaction buffer of 50 mM HEPES, pH 7.4, 50 mM KCl, 1 mM DTT and 0.01% Triton-X100 (to reduce false positive hits due to compound aggregation). The procaspase/small molecule incubations are then agitated at 37° C. and assayed at various time points by addition of the fluorogenic peptide substrate 7-Amino-4-trifluoromethylcoumarin-DEVD (Ac-DEVD-AFC) (procaspases-3, -7) or Ac-VEID-AFC (procaspase-6) to a final concentration of 25 μM and analyzed by a kinetic 30 minute assay (excitation 365 nm and emission 495 nm). The final concentration of DMSO in each well is 3% and has no effect on enzyme stability or activity. […] All components of the assay including protein, substrate and inhibitor are stored as frozen aliquots and thawed immediately prior to the assay.
Tables 1 and 2. Procaspase activation as a result of incubation with compound for 5 h at 37° C. (+++ EC50˜0.5-10 μM; ++ EC50˜10-50 μM; + EC50˜50-200 μM; -no activation observed; ND not determined).

[1] = incubation with compound for 5 h at 37° C., 100 nM procaspase, read-out: Procaspase Activation 3

Row | EC50 (procaspase-3; [1]) [µM] | EC50 (procaspase-6) [µM] | EC50 (procaspase-7) [µM] | SMILES | EC50 (procaspase-3) [µM]
1 | > 100 | > 100 | > 100 | Cn1cc(-c2cccc(NC(=O)c3cc4cccc(O)c4oc3=O)c2)cn1 [compound 171, 8-Hydroxy-2-oxo-2H-chromene-3-carboxylic acid [3-(1-methyl-1H-pyrazol-4-yl)-phenyl]-amide] | 
2 | > 100 | > 100 | > 100 | O=C(Nc1cccc(-c2ccc3c(c2)OCCO3)c1)c1cc2cccc(OC(F)(F)F)c2oc1=O [compound 88, 8-Trifluoromethoxy-2-oxo-2H-chromene-3-carboxylic acid [3-(2,3-dihydro-benzo[1,4]dioxin-6-yl)-phenyl]-amide] | 
3 | > 100 | > 100 | > 100 | COc1ccc(-c2cccc(NC(=O)c3cc4cccc(O)c4oc3=O)c2)cc1C [compound 47, 8-Hydroxy-2-oxo-2H-chromene-3-carboxylic acid (4′-Methoxy-3′-methyl-biphenyl-3-yl)-amide] | 
4 | > 100 | > 100 | > 100 | COc1ncccc1-c1cccc(NC(=O)c2cc3cccc(OC)c3oc2=O)c1 [compound 142, 8-Methoxy-2-oxo-2H-chromene-3-carboxylic acid [3-(2-methoxy-pyridin-3-yl)-phenyl]-amide] | 
5 | > 100 | > 100 | > 100 | CCOc1ccc(-c2cccc(NC(=O)c3cc4cccc(OC(F)(F)F)c4oc3=O)c2)cc1C [compound 67, 8-Trifluoromethoxy-2-oxo-2H-chromene-3-carboxylic acid (4′-ethoxy-3′-methyl-biphenyl-3-yl)-amide] | 
6 | > 100 | > 100 | > 100 | COc1ncc(-c2cccc(NC(=O)c3cc4cccc(O)c4oc3=O)c2)c(OC)n1 [compound 127, 8-Hydroxy-2-oxo-2H-chromene-3-carboxylic acid [3-(2,4-dimethoxy-pyrimidin-5-yl)-phenyl]-amide] | 
7 | > 100 | > 100 | > 100 | COc1cccc2cc(C(=O)Nc3cccc(-c4ccc5[nH]c(=O)[nH]c5c4)c3)c(=O)oc12 [compound 158, 8-Methoxy-2-oxo-2H-chromene-3-carboxylic acid [3-(2-oxo-2,3-dihydro-1H-benzoimidazol-5-yl)-phenyl]-amide] | 
8 | > 100 | > 100 | > 100 | O=C(Nc1cccc(-c2nc3ccccc3[nH]2)c1)c1cc2cccc(O)c2oc1=O [compound 15, 8-Hydroxy-2-oxo-2H-chromene-3-carboxylic acid [3-(1H-benzoimidazol-2-yl)-phenyl]-amide] | 
9 | > 100 | > 100 | > 100 | COc1cccc2cc(C(=O)Nc3cccc(-c4cc5ccccc5n4C(=O)OC(C)(C)C)c3)c(=O)oc12 [compound 176, 2-{3-[(8-Methoxy-2-oxo-2H-chromene-3-carbonyl)-amino]-phenyl}-indole-1-carboxylic acid tert-butyl ester] | 
10 | > 100 | > 100 | > 100 | CC(=O)Nc1ccccc1-c1cccc(NC(=O)c2cc3cccc(OC(F)(F)F)c3oc2=O)c1 [compound 97, 8-Trifluoromethoxy-2-oxo-2H-chromene-3-carboxylic acid (2′-acetylamino-biphenyl-3-yl)-amide] | 
11 | > 100 | > 100 | > 100 | O=C(Nc1cccc(-c2ccccc2OC(F)(F)F)c1)c1cc2cccc(OC(F)(F)F)c2oc1=O [compound 73, 8-Trifluoromethoxy-2-oxo-2H-chromene-3-carboxylic acid (2′-trifluoromethoxy-biphenyl-3-yl)-amide] | 
12 | > 100 | > 100 | > 100 | COc1ccc(-c2cccc(NC(=O)c3cc4cccc(OC(F)(F)F)c4oc3=O)c2)c(OC)c1 [compound 52, 8-Trifluoromethoxy-2-oxo-2H-chromene-3-carboxylic acid (2′,4′-dimethoxy-biphenyl-3-yl)-amide] | 

Second part, the molecule before the results:

Row | SMILES | EC50 (procaspase-3; [1]) [µM] | EC50 (procaspase-6) [µM] | EC50 (procaspase-7) [µM] | EC50 (procaspase-3) [µM]
13 | O=C(Nc1cccc(-c2ccccc2S(=O)(=O)N2CCOCC2)c1)c1cc2cccc(OC(F)(F)F)c2oc1=O [compound 100, 8-Trifluoromethoxy-2-oxo-2H-chromene-3-carboxylic acid (2′-(Morpholine-4-sulfonyl)-biphenyl-3-yl)-amide] | > 100 | > 100 | > 100 | 
14 | O=C(Nc1cccc(-c2cnc3ccccc3c2)c1)c1cc2cccc(O)c2oc1=O [compound 83, 8-Hydroxy-2-oxo-2H-chromene-3-carboxylic acid [3-Quinolin-3-yl-phenyl]-amide] | > 100 | > 100 | > 100 | 
15 | O=C(Nc1cccc(-c2cnc3ccccc3c2)c1)c1cc2cccc(OC(F)(F)F)c2oc1=O [compound 85, 8-Trifluoromethoxy-2-oxo-2H-chromene-3-carboxylic acid [3-Quinolin-3-yl-phenyl]-amide] | > 100 | > 100 | > 100 | 
16 | COc1cccc2cc(C(=O)Nc3cccc(-c4ccnn4C)c3)c(=O)oc12 [compound 152, 8-Methoxy-2-oxo-2H-chromene-3-carboxylic acid [3-(2-methyl-2H-pyrazol-3-yl)-phenyl]-amide] | > 100 | > 100 | > 100 | 
17 | COc1cccc2cc(C(=O)Nc3cccc(-c4ccc5c(c4)CCO5)c3)c(=O)oc12 [compound 75, 8-Methoxy-2-oxo-2H-chromene-3-carboxylic acid [3-(2,3-dihydro-benzofuran-5-yl)-phenyl]-amide] | > 100 | > 100 | > 100 | 
18 | CC(=O)Nc1ccccc1-c1cccc(NC(=O)c2cc3cccc(O)c3oc2=O)c1 [compound 95, 8-Hydroxy-2-oxo-2H-chromene-3-carboxylic acid (2′-acetylamino-biphenyl-3-yl)-amide] | > 100 | > 100 | > 100 | 
19 | O=C(Nc1cccc(-c2ccc3[nH]ccc3c2)c1)c1cc2cccc(OC(F)(F)F)c2oc1=O [compound 94, 8-Trifluoromethoxy-2-oxo-2H-chromene-3-carboxylic acid (3-(1H-Indol-5-yl)-phenyl)-amide] |  | > 100 | > 100 | > 100
20 | O=C(Nc1cccc(-c2ccc3ccccc3c2)c1)c1cc2cccc(O)c2oc1=O [compound 80, 8-Hydroxy-2-oxo-2H-chromene-3-carboxylic acid (3-Naphthalen-2-yl-phenyl)-amide] | > 100 | > 100 | > 100 | 
21 | COc1ccc(OC)c(-c2cccc(NC(=O)c3cc4cccc(OC(F)(F)F)c4oc3=O)c2)c1 [compound 58, 8-Trifluoromethoxy-2-oxo-2H-chromene-3-carboxylic acid (2′,5′-dimethoxy-biphenyl-3-yl)-amide] | > 100 | > 100 | > 100 | 
22 | N#Cc1cc(-c2cccc(NC(=O)c3cc4cccc(O)c4oc3=O)c2)ccc1F [compound 145, 8-Hydroxy-2-oxo-2H-chromene-3-carboxylic acid (3′-cyano-4′-fluoro-biphenyl-3-yl)-amide] | > 100 | > 100 | > 100 | 
